Results on three compounds are retold here after patent US11186585B2 (priority 2018, dated 2021).

The structures appear in SMILES notation. Values joined by “and” are separate entries in the source; they are usually repeats but may differ in a detail not shown here. Equal values may be shown once. Marks after values point to notes of the source that are not given here.

Data set [1] concerns healthy volunteers. Kind of data set: Double-blind trial, miosis after oral capsule. Type of data set: in vivo, human. The note with it: for % MPE (miosis): oral, individual data, 33 45 mg, NB 35 mg, 39 68 mg. As for the experimental part: Double-blind, NB hydrochloride and NB-39 controlled, trial of the antinociceptive effect of oral NB-33 in healthy volunteers. Each of the three healthy volunteers was assigned a set of 6 non-transparent gelatin capsules as follows: 2×NB hydrochloride (MW=393.4; 39 mg), 2×NB-33 (MW=451.6; 45 mg) and 2×NB-39 (MW=680.0; 68 mg). Each week a healthy volunteer would receive a pill from the assigned set in a random fashion and take it orally. At T=0 hr, 0.25 hr, 0.5 hr, 1 hr, 1.5 hr, 2 hr, 3 hr and 5 hr followed oral administration a heat pain threshold was measured (hot water at 50° C.) as well as miosis.
(§1) Following one week of a wash out period, each volunteer repeated the protocol until all pills from the assigned set were administered. The individual data for heat pain threshold as % MPE=[(test latency−baseline latency)/(baseline latency)]×100 and for miosis as % MPE=[(test diameter−baseline diameter)/(baseline diameter)]×100 are shown in Table 2 and Table 3 respectively.
(§2) Independent samples t-test was used to compare the means of % MPE analgesia and miosis in the two pairs of samples: NB-33 and NB and NB-33 and NB-39. All analyses were made using SPSS (v.25). • Bold indicates statistical significance at α=0.05

A short description of data set [2]: Stability in the simulated gastro-intestinal fluid (sGIF). The note with it: 0.5% pepsine in 0.1N aqueous HCl, 37° C.; acceptance: NLT 80% of the derivative still intact after 4 hrs.
Data set [3] relates to healthy volunteers. Kind of data set: Double-blind trial, heat pain threshold (hot water at 50° C.) after oral capsule. The class given is in vivo, human. The note with it: for % MPE (analgesia): oral, individual data, 33 45 mg, NB 35 mg, 39 68 mg. As to the method:
Double-blind, NB hydrochloride and NB-39 controlled, trial of the antinociceptive effect of oral NB-33 in healthy volunteers. […] Each week a healthy volunteer would receive a pill from the assigned set in a random fashion and take it orally. […]
as §1, §2

The subject of a further data set is Sprague-Dawley rats. The data set can be described thus: Antinociceptive activity, cold ethanol tail-flick test after oral gavage. Type of data set: in vivo, rat. The note with it: for Analgesia (rat): oral gavage in sesame oil, 60 uM/kg, one dose, tail-flick at −20° C., cutoff 40 seconds. In general terms: Hot-plate and tail-flick tests time the reaction to a heat stimulus.

Data set [4] in a line: Stability in human plasma. The note with it: 37° C., acceptance criteria: NLT than 20% of hydrolysis after 4 hrs.
The next data set concerns rats. Kind of data set: Randall-Selitto test after SC dose. Type of data set: in vivo, rat. The note with it: NB-33.HCl 3.9 mg/kg; for Randall-Selitto (g), individual animal: NB.HCl 3 mg/kg; for Randall-Selitto (g), Mean: mean of 5, NB.HCl 3 mg/kg. The text has this:
FIG. 13 illustrate in the graphical form the results for 1310 NB-33, marked 1310, in comparison to the base NB compound NB, marked 1320 in FIG. 13.

Data set [5] has as its system Human recombinant opiate receptor (mu, kappa or delta). Kind of data set: Human recombinant opiate receptor panel, overall profile in words. The note with it: CHO-K1 cells, cAMP. The class given is cell-based. As for the experimental part: Human recombinant opiate receptor (mu, kappa or delta) expressed in CHO-K1 cells were used. Test compound (NB-33)/or vehicle was incubated with the cells (4×10E5/mL) in modified HBSS pH 7.4 buffer at […] for 30 min. The reaction was evaluated for cAMP levels by TR-FRET. Compounds were screened at 0.3, 1 and 3 uM. by Eurofins Pharma Discovery Services.
Human recombinant opiate receptor (mu, kappa or delta) expressed in CHO-K1 cells were used. Test compound (NX-90)/or vehicle was incubated with the cells (4×10E5/mL) in modified HBSS pH 7.4 buffer at […] for 30 min. The reaction was evaluated for cAMP levels (cAMP and/or calcium flux) by TR-FRET. Compounds were screened at 0.1, 0.3 and 1 uM by Eurofins Pharma Discovery Services.

Turning to `CCCCCCCCCCCCCCCCCCCCCC(=O)Oc1ccc2c3c1OC1C(O)CCC4(O)C(C2)N(CC2CCC2)CCC314` (stereo not shown) [NB-39, 3-(cyclobutylmethyl)-4a,7-dihydroxy-2,3,4,4a,5,6,7,7a-octahydro-1H-4,12-methanobenzofuro[3,2-e]isoquinolin-9-yl docosanoate], the “% MPE (miosis)” value with healthy volunteers [1] (0 hr (baseline)) is 0.0 % MPE; with healthy volunteers [1] (0.25 hr), 10.3 % MPE and 0.0 % MPE and 25.0 % MPE and 12.5 % MPE and 20.0 % MPE and 3.1 % MPE; in the data set with healthy volunteers [1] (0.5 hr) it was 14.9 % MPE and 0.0 % MPE and 16.7 % MPE and 9.4 % MPE (2×) and 26.7 % MPE; in the data set on healthy volunteers [1] (1 hr), 37.9 % MPE and 6.7 % MPE and 22.2 % MPE and 18.8 % MPE and 36.7 % MPE and 21.9 % MPE; in the data set on healthy volunteers [1] (1.5 hr), 37.9 % MPE and 6.7 % MPE and 33.3 % MPE and 21.9 % MPE and 23.3 % MPE and 25.0 % MPE; in the data set on healthy volunteers [1] (2 hr) it was 14.9 % MPE and 0.0 % MPE and 25.0 % MPE and 17.2 % MPE and 16.7 % MPE and 6.2 % MPE. Also, the “% MPE (miosis)” value in the data set with healthy volunteers [1] (2.5 hr) is 14.9 % MPE and 6.7 % MPE and 11.1 % MPE and 6.2 % MPE and 13.3 % MPE and 9.4 % MPE; with healthy volunteers [1] (3 hr) it was 24.1 % MPE and 0.0 % MPE (3×) and 11.1 % MPE and 3.3 % MPE; in the data set with healthy volunteers [1] (5 hr), 3.4 % MPE and 0.0 % MPE (2×) and 11.1 % MPE and 13.3 % MPE and 3.1 % MPE. Besides, in the data set with healthy volunteers [1] (oral administration), the “effect on pupil dilation (miosis) in humans, in words” value is “did not significantly affect”. The “Stable in sGIF” value in data set [2] was “Yes”. Moreover, the “% MPE (analgesia)” value in the data set with healthy volunteers [3] (0 hr (baseline)) is 0.0 % MPE; with healthy volunteers [3] (0.25 hr), 0.0 % MPE (2×) and 17.6 % MPE and 13.3 % MPE and 6.2 % MPE and 8.3 % MPE; in the data set on healthy volunteers [3] (0.5 hr), 10.0 % MPE and 11.8 % MPE and 40.0 % MPE and 6.2 % MPE and 55.6 % MPE and 15.0 % MPE; in the data set on healthy volunteers [3] (1 hr), 10.0 % MPE and 5.9 % MPE and 73.3 % MPE and 10.8 % MPE and 11.1 % MPE and 5.0 % MPE; with healthy volunteers [3] (1.5 hr) it was 15.0 % MPE and 11.8 % MPE and 93.3 % MPE and −7.7 % MPE and 19.4 % MPE and 5.0 % MPE; with healthy volunteers [3] (2 hr), 10.0 % MPE and 23.5 % MPE and 93.3 % MPE and 33.8 % MPE and 0.0 % MPE (2×). The “% MPE (analgesia)” value is 5.0 % MPE (2×) and 0.0 % MPE and 46.7 % MPE and −6.2 % MPE and 16.7 % MPE with healthy volunteers [3] (2.5 hr); 10.0 % MPE and 11.8 % MPE and 40.0 % MPE and 9.2 % MPE and 0.0 % MPE (2×) in the data set with healthy volunteers [3] (3 hr); 0.0 % MPE (2×) and 6.7 % MPE and −9.2 % MPE and −2.8 % MPE and 5.0 % MPE in the data set on healthy volunteers [3] (5 hr). For the same compound, the “analgesia in humans, in words” value in the data set on healthy volunteers [3] (given orally, compared with equivalent dose of Nalbuphine (NB) and NB-39) was “inferior”. The “analgesia in rats, in words” value in the data set with Sprague-Dawley rats (given orally, compared with equivalent dose of Nalbuphine (parent opioid)) was “inferior”. Besides, the “Analgesia (rat)” value with Sprague-Dawley rats is reported as “Inactive”. Further, the Stable in plasma entry in data set [4] was “No”.
Turning to `C/C=C/C=C/C(=O)Oc1ccc2c3c1OC1C(O)CCC4(O)C(C2)N(CC2CCC2)CCC314.Cl` (stereo not shown) [NB-56, 3-(cyclobutylmethyl)-9-(((2E,4E)-hexa-2,4-dienoyl)oxy)-4a,7-dihydroxy-2,3,4,4a,5,6,7,7a-octahydro-1H-4,12-methanobenzofuro[3,2-e]isoquinolin-3-ium chloride], the “Stable in sGIF” value in data set [2] is “Yes”. Further, the “Analgesia (rat)” value with Sprague-Dawley rats is “No”. Further, the “Randall-Selitto (g), individual animal” value in the data set on rats (Post-dose 0.5 hr) was 121 g and 120 g and 207 g and 161 g and 96 g; in the data set with rats (Post-dose 1 hr), 98 g and 103 g and 199 g and 73 g and 86 g; in the data set on rats (Post-dose 2 hr), 99 g and 94 g and 214 g and 102 g and 85 g; in the data set with rats (Post-dose 4 hr) it was 83 g and 71 g and 136 g and 63 g and 97 g; in the data set on rats (Post-dose 6 hr), 79 g and 64 g and 101 g and 65 g and 85 g; in the data set with rats (Pre-treatment (baseline)), 93 g and 82 g and 98 g and 80 g and 96 g. Moreover, the “Randall-Selitto (g), Mean” value was 141.0* g in the data set on rats (Post-dose 0.5 hr); 111.8 g in the data set with rats (Post-dose 1 hr); 118.8 g with rats (Post-dose 2 hr); 90.0 g in the data set on rats (Post-dose 4 hr); 78.8 g in the data set with rats (Post-dose 6 hr); 89.8 g in the data set on rats (Pre-treatment (baseline)). Moreover, in data set [4], the Stable in plasma entry is reported as “No”.
Consider `C=CCN1CCC23c4c5ccc(OC(=O)/C=C/C=C/C)c4OC2C(=O)CCC3(O)C1C5` (stereo not shown) [NX-90, 3-allyl-4a-hydroxy-7-oxo-2,3,4,4a,5,6,7,7a-octahydro-1H-4,12-methanobenzofuro[3,2-e]isoquinolin-9-yl (2E,4E)-hexa-2,4-dienoate], for which the “pharmacological profile at opiate receptors, in words” value in data set [5] is on record as “not a pharmacologically inert compound”.
